Legend:
FOXO3 = FOXO3 (Homo sapiens, UniProt O43524); assay: fluorescence polarization displacement of IRE-FAM oligonucleotide from recombinant FOXO3-DBD (Ki calculated from IC50 […]); supported by FAM-EMSA; type: binding
FOXO3-DBD = FOXO3-DBD (human, UniProt O43524 156-269); assay: EMSA; 1 uM protein, 100 nM DNA; 'high affinity'; Not stated; FPA and FAM-EMSA as described in ref 24; conditions: protein: recombinant; blunt
Chain of FOXO3-DBD (O43524 156-269): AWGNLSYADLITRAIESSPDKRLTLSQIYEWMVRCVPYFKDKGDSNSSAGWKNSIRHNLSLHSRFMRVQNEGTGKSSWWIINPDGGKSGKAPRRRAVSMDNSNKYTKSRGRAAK

Chain of FOXO3 (O43524 156-269): as above

Molecule	Ki (FOXO3) [µM]	binding result (FOXO3-DBD)
CCOc1cc(CC(=O)N[C@@H](CC(C)C)c2ccccc2N2CCCCC2)ccc1C(=O)O [RPG, repaglinide]	24.9	–
FoxP3 oligonucleotide (FAM) (dsDNA) DNA 1: AGCAAAGTTGTTTTTGATAATG DNA 2: CATTATCAAAAACAACTTTGCT	–	binds

Source: publication PMC7017090, “Repaglinide Silences the FOXO3/Lumican Axis and Represses the Associated Metastatic Potential of Neuronal Cancer Cells” (Cells, 2019)
